From publication PMC6044897 (ACS Omega, 2017)

What was measured:
M2R = biological target: T1, M2R (Homo sapiens, UniProt P08172); assay: Equilibrium competition binding with [^3H]64 at CHO-hM2R cell homogenates
T1 sequence (P08172 1-466): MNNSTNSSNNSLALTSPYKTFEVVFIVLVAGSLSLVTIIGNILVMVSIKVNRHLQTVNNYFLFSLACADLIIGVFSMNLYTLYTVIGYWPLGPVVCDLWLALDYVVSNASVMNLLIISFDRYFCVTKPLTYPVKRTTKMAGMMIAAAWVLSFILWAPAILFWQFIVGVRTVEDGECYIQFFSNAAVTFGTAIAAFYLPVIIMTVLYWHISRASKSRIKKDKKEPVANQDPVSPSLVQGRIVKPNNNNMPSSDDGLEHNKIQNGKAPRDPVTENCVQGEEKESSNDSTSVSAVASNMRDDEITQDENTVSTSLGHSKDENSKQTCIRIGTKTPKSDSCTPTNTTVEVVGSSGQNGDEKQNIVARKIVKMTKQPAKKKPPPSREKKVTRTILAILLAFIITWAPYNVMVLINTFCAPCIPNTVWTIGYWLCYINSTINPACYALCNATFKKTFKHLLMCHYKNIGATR

M1R–M5R = settings: read-out: Ki (M1R–M4R); range over M1R–M4R; cited from earlier work

| displacement of [^3H]64 from the M2R-specific binding sites (M2R) | Structure (SMILES) | Ki (M1R–M5R) [nM] |
| --- | --- | --- |
| completely displaced | CCCCCCOc1nsnc1C1=CCCN(C)C1 [Compound 1, xanomeline] | – |
| – | CC(C)[N+](C)(CCOC(=O)C1c2ccccc2Oc2ccccc21)C(C)C [Compound 4, propantheline] | 0.057 to 0.33 |
